# Reference: US10300049B2, “Myeloid differentiation inducing agents” (CASE WESTERN RESERVE UNIVERSITY, priority 2007, dated 2019)
# How the values were obtained:
# p38delta = assay: Gene expression (microarray, real time PCR) in HL-60 cells; assay type: cell-based, human
# Method: FIG. 14 illustrates graphs showing 6BT and securinine regulate the expression of genes that may play important roles in myeloid differentiation. HL-60 cells were treated with the indicated compounds for 1 or 3 days and total RNA was prepared. The relative expression of the indicated genes was assessed by real time PCR.
# In order to further assess the signaling pathways of 6BT and securinine as well as to further elucidate the myeloid differentiation program in general, gene microarray studies were performed. These initial studies assessed the gene expression pattern at 16 and 72 hours after treatment. […] Several of these genes are known to be involved in the differentiation of non-hematopoietic cells such as neuron, muscle, and or keratinocyte differentiation. Selected examples of genes whose expression is strongly regulated by securinine and 6BT that have been verified is seen in […].
# OCI-AML3 cells = assay: NBT reduction assay in OCI-AML3 cells; assay type: cell-based; details: 4 days
# Method: The two most promising compounds (compound 2A and compound 2B) were further tested for their differentiation activity in several additional AML cell lines as compared to securinine (FIG. 17). […] In all three cell lines tested, a dose of only 2.5 uM of compound 2B was sufficient to induce nearly complete differentiation.
# The above indicated cells were treated for 4 days and the NBT reduction assay was performed. The X-axis refers to the cell treatments and the Y-axis denotes the percentage of differentiation as measured by the NBT Reduction assay.
# p21 = p21 Western blot in HL-60 cells; assay type: cell-based, human; details: 1, 3, or 5 days
# Method: (§1) HL-60 cells were treated with the indicated compounds for 1, 3, or 5 days and cells were lysed. Western blot analysis was performed with p21, Bcl-2, and actin antibodies.
# [1] = test system: HL-60 subcutaneous tumors; assay: Established HL-60 subcutaneous tumor xenograft in nude mice; assay type: in vivo
# Method: Nude mice (5 per experimental group) were injected with 5×10^7 HL-60 cells bilaterally into the flank. 9 days after tumor cell inoculation, the indicated drugs were injected I.P. three times a week for 3 weeks. […] Representative picture of the mice at the end of the study period (B). Representative picture of tumors dissected from the indicated mice. (C). Average weights of tumors dissected from all mice (D).
# (§2) In order to further assess the in vivo potential of 6BT and Securinine, mouse xenograft experiments were performed. In the first model, the ability of 6BT and Securinine to inhibit established HL-60 subcutaneous leukemic tumor growth in nude mice was assessed. […] In the second model system, the ability of 6BT to prevent either HL-60 or MV-411 tumor formation in nude mice was assessed.
# (§3) This Example assed the effects of securinine and its analogues in mice. […] HL-60 cell is an AML cell line commonly used for in-vitro studies and typically they are classified as M2 subtype. […] Therefore this was the highest dose that could be safely utilized.
# Next we repeated the mouse xenograft experiments using i.p. drug administration (20 mg/kg), but with twice a day dosing again using HL-60 cell tumors.
# Securinine (20 mg/kg) or vehicle ([…]) was injected i.p. into mice starting 10 days after HL-60 cell inoculation bilaterally into the flanks of nude mice (5 mice per group).
# c-myc = c-myc expression by real time PCR in HL-60 cells; assay type: cell-based, human; details: 1, 3, or 5 days
# Method: (§4) FIG. 11 illustrates graphs showing securinine and 6BT downregulate c-myc expression and upregulate CEBPB. HL-60 cells were treated with the indicated compounds for 1, 3, or 5 days and total RNA was prepared. The relative expression of c-myc and CEPβ was determined by real time PCR.
# CEBPβ = CEBPβ expression by real time PCR in HL-60 cells; assay type: cell-based, human; details: 1, 3, or 5 days
# Method: as §4
# [2] = test system: primary patient leukemic samples; assay: Differentiation and cell death in other AML cell lines and primary patient leukemic samples; assay type: cell-based, human
# Method: FIGS. 7(A-B) illustrate 6BT and securinine have potent differentiation and cell death effects on primary leukemic samples. Primary patient leukemic samples were stained with CD34+ and sorted by flow cytometry. Leukemic cells were treated with the indicated compounds (6BT […]) for up to 7 days. A. Representative pictures showing morphological differentiation of primary patient samples B. 6BT and Securinine treated primary leukemic cells show either differentiation by NBT reduction or cell death.
# In several cases, the compounds were able to induce a higher amount of differentiation than ATRA. It should be noted, that though ATRA is only clinically useful for APL, it is well known to potently induce the differentiation of many other AML cell lines in vitro. […] Though the exact mechanisms are not yet clear, certain leukemic cells appear to preferentially undergo cell death in response to 6BT and Securinine prior to full differentiation.
# We then tested the effects of securinine on patient samples. […] Unfortunately, many of the patient samples were not suitable for analysis. A significant portion of the cells that were obtained were either nonviable or contaminated with bacteria.
# [3] = Toxicity, tolerability and seizures in mice
# Method: as §2, §3
# We performed a preliminary test with the two most promising analogues, compound 2A and compound 2B to verify their safety.
# [4] = test system: normal human lymphocytes, normal human bone marrow, mouse embryonic fibroblasts, and human umbilical vein endothelial cells; assay: Toxicity on normal cells; assay type: cell-based
# From the text: In order to further assess the toxicity of 6BT and Securinine, normal human lymphocytes, normal human bone marrow, mouse embryonic fibroblasts, and human umbilical vein endothelial cells were examined.
# HL-60 cells [5] = assay: Flow cytometry of CD11b and CD14 cell surface markers; assay type: cell-based, human
# Method: HL-60 cells were treated with the indicated compounds for 4 days, the cells were stained with CD11b-PE and CD14-FITC, and flow cytometric analysis was performed.
# 60 cancer cell lines = details: highest concentration used 100 μM; cited from earlier work
# p44/p42 and p38 = assay: Phospho-specific Western blot of p44/p42 and p38 in HL-60 cells; assay type: cell-based, human; details: 15 to 60 minutes
# Method: FIG. 13 illustrates an immunoblot showing 6BT and Securinine activate both p44/p42 and p38. HL-60 cells were treated with the indicated compounds for 15, 20, 46, or 60 minutes and the cells were lysed. Western blot analysis was performed with phospho-specific antibodies to p44/p42 and p38 as well as the actin anibody.
# [6] = known; cited from earlier work
# HL-60 cells [7] = assay: Cell cycle, propidium iodide flow cytometry; assay type: cell-based, human; details: 4 days
# Method: HL-60 cells were treated with the indicated compounds for 4 days and the cells were stained with propidium iodide and analyzed by flow cytometry.
# Bcl-2 = Bcl-2 Western blot in HL-60 cells; assay type: cell-based, human; details: 1, 3, or 5 days
# Method: as §1
# HL-60 cells [8] = assay: NBT reduction assay of differentiation in HL-60 cells; assay type: cell-based, human
# From the text: The NBT screen works due to changes in the oxidoreductases during differentiation that lead to increases in rates of NBT reduction. NBT is reduced due to the production of superoxide that is catalyzed by an NADPH oxidase. […] A quantitative NBT reduction assay is ideal for this type of screen as it is simple, sensitive, quantitative, requires minimal cells, has been proven to have low well to well variability, and the amount of reduced NBT is proportional to the number of cells reducing the dye as well as the amount reduced by each cell.
# […] […] Differentiation is determined in the 96 well plates by incubating the cells with 1 mg/ml of NBT and 200 ng/ml of PMA as the stimulant for the respiratory burst for 35 minutes at 37° C. The reaction can then be stopped with HCL and the formazan will be solubilized with DMSO. Finally, the reaction mixture will be read spectrophotometricaly at 560 nm in a plate reader.
# […] […] Differentiation is determined in the 96 well plates by incubating the cells with 1 mg/ml of NBT and 200 ng/ml of PMA as the stimulant for the respiratory burst for 35 minutes at 37° C. The reaction will then be stopped with HCL and the formazan will be solubilized with DMSO. Finally, the reaction mixture will be read spectrophotometricaly at 560 nm in a plate reader.
# The assays are done using the colorimetric process. The NBT reduction assay measures the respiratory burst and is done by stimulating the respiratory burst in cells with PMA and then looking for a color change in the NBT dye.
# HL-60 cells [9] = assay: Morphology, cytospin with Wright-Giemsa stain; assay type: cell-based, human; details: 4 days
# Method: HL-60 cells were treated with the indicated compounds for 4 days. Cytospin preparations were prepared and the cells were stained with Wright-Giemsa stain.
structure (smiles),measurement,setting,value
O=C1C=C2C=C[C@@H]3C[C@@]2(O1)[C@H]1CCCCN31 [Securinine],p38delta expression,p38delta,upregulated
same,differentiation activity in OCI-AML3 cells,OCI-AML3 cells,modest differentiation activity
same,p21 protein level,p21,upregulated
same,average tumor size smaller than vehicle treated mice at end of study,[1]; 20 mg/kg i.p. twice a day,more than 75%
same,effect on growth of HL-60 subcutaneous tumors,[1]; 20 mg/kg once a day,could not detect any significant effects
same,inhibition of established HL-60 subcutaneous leukemic tumor growth,"[1]; first model, I.P. three times a week for 3 weeks from day 9",not Securinine was found to have significant in vivo activity
same,c-myc expression,c-myc,potently downregulate c-myc
same,CEBPβ expression,CEBPβ,time-dependent upregulation of CEBPβ
same,cell death of specific leukemic cell lines and primary patient samples,[2],quicly undergo cell death
same,differentiation of other AML cell lines and primary patient leukemic samples,"[2]; 6BT 10 mM, Securinine 15 mM, up to 7 days (FIG. 7)","effective in differentiating other AML cell lines besides HL-60 cells, as well as primary patient leukemic samples"
same,leukemia patient samples in which differentiation was induced,[2]; samples suitable for analysis,8 of 10
same,toxicity in mice,[3]; 20 mg/kg,no evident toxicities
same,seizures in mice,[3]; dose approximately two fold higher than 20 mg/kg,lead to seizures
same,toxicity on normal cells,[4],induced cell death occurred at doses higher than those required for activity on leukemia cells
same,CD11b positive,"HL-60 cells [5]; 10 μM, 4 days",87%
same,CD14 positive,"HL-60 cells [5]; 10 μM, 4 days",86%
same,synergy in upregulation of CD11b,"HL-60 cells [5]; with ATRA and decitabine, data not shown",synergize in the upregulation of CD11b
same,average LD50 across the 60 cancer cell lines,60 cancer cell lines,97 µM
same,phosphorylation of p44/p42 and p38,p44/p42 and p38,rapid phosphorylation of p44/p42 and p38
same,metabolism in vivo,[6],extremely rapid metabolism in vivo
same,seizures,[6],lead to seizures
same,cell cycle phase in which cells accumulate,HL-60 cells [7],accumulation of cells in G0/G1
same,Bcl-2 protein level,Bcl-2,downregulation of Bcl-2
same,"cells differentiated, NBT reduction assay","HL-60 cells [8]; HL-60 cells, 4 days (FIG. 3)",~95%
same,concentration at which significant differentiation or cell death effects upon the leukemic cells occur,HL-60 cells [8]; leukemic cells in our studies,~10 µM
same,enhancement of differentiation induced by ATRA and decitabine,"HL-60 cells [8]; low concentrations, NBT reduction assay",capable of enhancing the differentiation induced by both ATRA and decitabine
same,morphologic changes,HL-60 cells [9],clear morphologic changes suggestive of monocytic differentiation
